Measurements: EP4792811A1, “S1PR4 REGULATOR COMPOUND FOR MUSCLE DISEASE TREATMENT AND APPLICATION THEREOF” (Shengyuan Zetong (Shanghai) Pharmaceutical Co., Ltd, priority 2023, dated 2025)
Entries after “also recorded” stand apart in the source; their conditions may differ.

Columns and labels:
[1] = test system: S1PR4-R82C/NDUFA10-R217W double-mutant mice; assay: In vivo efficacy in S1PR4-R82C/NDUFA10-R217W double-mutant muscular dystrophy mice; settings: 1 mg/kg intragastric once daily
Description: Experimental Animals: A total of 34 S1PR4-R82C/NDUFA10-R217W mice were divided into 6 groups as shown below.
Intragastric administration was initiated on Day 0, and body weight was measured daily during the experiment to adjust the drug dosage. Grip strength was measured at the beginning and end of the experiment to observe motor changes in mice. Changes in the limb grip strength, serum creatine kinase content, and muscle fibrosis/inflammation in mice were detected as indicators for evaluating drug efficacy.
(§1) The mouse was placed horizontally on the grip test board. The mouse's tail was held and pulled gently in the opposite direction without using excessive force. The tail was gradually pulled until the mouse released the grip force sensor. The maximum value recorded by the grip force sensor is the grip strength. The test was repeated for 3 times and the average value was taken.
(§2) After the completion of administration, blood was collected via the orbital sinus, allowed to stand for 30 minutes, centrifuged at 3000 rpm at 4°C for 15 minutes, and serum was extracted, stored frozen at -20°C, and detected in accordance with the kit instructions.
(§3) After the experiment, the tibialis anterior, extensor digitorum longus, and diaphragm of the mice were harvested, fixed, sectioned, and subjected to HE staining and Sirius Red staining to observe the degree of muscle fibrosis. The slice was subjected to immunofluorescence staining with F4/80 to observe the level of muscle inflammation.

[2] = test system: Duchenne muscular dystrophy model mice; assay: In vivo pharmacodynamic test in Duchenne muscular dystrophy model mice (Compound 30)
Description: Experimental Animals: A total of 35 Duchenne muscular dystrophy model mice were divided into 6 groups as shown below.
Intragastric administration was initiated from Day 0. Body weight was measured daily during the experiment to adjust the drug dosage. Grip strength tests were performed every 2 days to observe changes in the mice's grip strength until the experiment concluded on Day 21. Changes in the limb grip strength, serum creatine kinase content, and muscle fibrosis/inflammation in the mice were detected as indicators for evaluating drug efficacy.
as §1, §2, §3

hS1P4 = molecular target: T1, hS1P4 (Homo sapiens, UniProt O95977); assay: Tango β-arrestin recruitment assay, Tango-hS1P4-CHO; assay type: cell-based; settings: final concentration 45 µM, 9 serial dilutions at 5-fold intervals; 20 h drug treatment; luciferase readout
T1 construct: expressed in transfected cells; host or cells: CHO-K1
T1 sequence (O95977 1-384): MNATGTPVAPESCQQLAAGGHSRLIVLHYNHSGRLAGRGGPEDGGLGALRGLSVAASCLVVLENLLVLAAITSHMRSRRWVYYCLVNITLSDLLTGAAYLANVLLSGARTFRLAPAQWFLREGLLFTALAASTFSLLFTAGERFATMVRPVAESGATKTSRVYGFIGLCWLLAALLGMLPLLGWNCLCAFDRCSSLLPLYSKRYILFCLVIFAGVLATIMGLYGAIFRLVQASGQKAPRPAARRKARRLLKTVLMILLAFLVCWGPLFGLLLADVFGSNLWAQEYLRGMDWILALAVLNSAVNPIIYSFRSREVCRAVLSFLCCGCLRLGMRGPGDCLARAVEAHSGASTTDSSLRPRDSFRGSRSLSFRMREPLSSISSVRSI
Text: (§4) The Tango assay detects ligand-dependent GPCR activity through the interaction between β-arrestin and GPCRs. […] The NTEV fragment and the tetracycline transactivator (tTA), an artificial transcription factor, are fused at the C-terminus of the GPCR, while the CTEV fragment is fused to human β-arrestin 2. To enhance the stability of the interaction between GPCR and β-arrestin, a short sequence from the C-terminus of the human arginine vasopressin receptor 2 (V2 tail) is inserted between the GPCR and NTEV. The V2 tail contains multiple GRK phosphorylation sites, which strengthen β-arrestin binding upon phosphorylation. The CTEV fragment carries the stabile point mutation S219P and is truncated at residue 221 to remove the autoinhibitory C-terminal tail. Meanwhile, β-arrestin 2 is truncated to lack the entire C-terminal tail (residues 383-410 deleted). This truncation confers robust stimulus-dependent receptor desensitization, thereby improving detection sensitivity compared with wild-type β-arrestin 2. The UAS reporter construct consists of upstream activating sequence (UAS) elements, a minimal CMV promoter, and a tTA-dependent luciferase reporter gene. Therefore, constructing Tango cells requires the co-transfection of the above three plasmids into host cells. Upon GPCR activation and β-arrestin recruitment, the TEV enzyme at the β-arrestin terminus cleaves tTA from the GPCR C-terminus. The released tTA initiates tTA-dependent luciferase transcription, and compound activity is ultimately determined by measuring luminescence intensity.
(§5) • 1) Tango cell line from was digested from the culture dish respectively. After cell counting, the cells were plated at a density of 10,000 cells per well with […] into a white opaque 96-well plate (add 60 µL D'Hanks to the surrounding wells), and incubated overnight (20 h) in a 5% CO2 incubator at 37°C. The cell density will reach approximately 90% the next day. • 2) After 20 h, 30 µL of serially diluted compound solution was added to each well. The control group was supplemented with 30 µL F12K complete medium. Each group had three replicate wells. • 3) Samples were collected after 20 h of drug treatment.
(§6) (All compounds were tested at a final concentration of 45 µM, with 9 serial dilutions at 5-fold intervals. 1 µM BAF-312 was used as the positive control for S1PR1, and 25 µM BAF-312 was used as the positive control for S1PR4.)
(§7) ^a β-arrestin recruitment activity based on Tango-S1PR1-CHO-K1 and Tango-S1PR4-CHO-K1 cells, expressed as mean EC50 values ± SD. ^b FLIPR assays were performed using S1PR2-CHO and S1PR5-CHO cell lines, expressed as mean EC50 values ± SD. ^c β-arrestin recruitment activity based on PathHunter CHO-K1-S1PR3 cells, expressed as mean EC50 values ± SD. Data are the mean of at least two independent determinations, reported as mean ± SD (standard deviation).

hS1P1 = molecular target: T2, hS1P1 (Homo sapiens, UniProt P21453); assay: Tango β-arrestin recruitment assay, Tango-hS1P1-CHO; assay type: cell-based; settings: final concentration 45 µM, 9 serial dilutions at 5-fold intervals; 20 h drug treatment; luciferase readout
T2 construct: expressed in transfected cells; host or cells: CHO-K1
T2 sequence (P21453 whole entry): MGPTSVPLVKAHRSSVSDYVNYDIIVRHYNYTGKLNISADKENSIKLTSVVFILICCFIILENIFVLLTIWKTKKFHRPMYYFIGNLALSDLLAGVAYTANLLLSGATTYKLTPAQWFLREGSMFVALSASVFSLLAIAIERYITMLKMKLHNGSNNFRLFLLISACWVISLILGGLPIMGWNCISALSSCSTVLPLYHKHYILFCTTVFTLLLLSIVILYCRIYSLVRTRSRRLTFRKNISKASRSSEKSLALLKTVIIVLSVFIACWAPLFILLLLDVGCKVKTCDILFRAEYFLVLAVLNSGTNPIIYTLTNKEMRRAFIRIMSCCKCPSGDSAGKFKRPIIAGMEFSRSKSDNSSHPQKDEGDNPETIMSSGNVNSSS
Text: as §4, §5, §6, §7

[3] = 1 mg/kg intragastric once daily

Compound | EC50 (hS1P4) [nM] | EC50 (hS1P1) [nM] | other results
C[C@]12C=CC(=O)C=C1CC[C@@H]1[C@@H]2[C@@H](O)C[C@@]2(C)[C@H]1CC[C@]2(O)C(=O)CO [prednisolone, reference compound] | – | – | grip strength (ratio of grip strength to body weight) ([1]; after 21 days of treatment): significantly increased; collagen deposition (collagen area ratio) ([1]; after administration): significantly reduced collagen deposition; serum creatine kinase level ([1]; after treatment): no such lowering effect; also recorded: no reduction; body weight gain trend ([1]; compared with the model group): relatively slow; collagen deposition (collagen area ratio) [2, 3]: significantly reduced collagen deposition; number of centrally nucleated fibers (HE staining) [2, 3]: significantly reduced; serum creatine kinase level ([2]; 1 mg/kg intragastric once daily, after treatment): significantly reduced; body weight growth trend ([2]; 1 mg/kg intragastric once daily, compared with the model group): no difference; macrophage content (F4/80 immunofluorescence, muscle inflammation) ([2]; intragastric once daily): significantly reduced macrophage content
CCc1cc(/C(C)=N/OCc2ccc(-c3cncnc3C)c(C)c2)ccc1CN1CC[C@H](C(=O)O)C1 [Compound 83, (S, E)-1-(2-ethyl-4-(1-(((3-methyl-4-(4-methylpyrimidin-5-yl)benzyl)oxy)imino)ethyl)benzyl)pyrrolidine-3-carboxylic acid] | 40.95 ± 0.22 | – | –
CCc1cc(/C(C)=N/OCc2ccc(-c3cnc(F)nc3)c(C)c2)ccc1CN1CC[C@H](C(=O)O)C1 [Compound 80, (S, E)-1-(2-ethyl-4-(1-(((4-(2-fluoropyrimidin-5-yl)-3-methylbenzyl)oxy)imino)ethyl)benzyl)pyrrolidine-3-carboxylic acid] | 18 ± 0.525 | – | –
CCc1cc(/C(C)=N/OCc2cccc(C(F)(F)F)c2)ccc1CN1CC(C(=O)O)C1 [Compound 13] | – | 5100 ± 1510 | –
CCc1cc(/C(C)=N/OCc2ccc(-c3cnsc3)cc2)ccc1CN1CC[C@H](C(=O)O)C1 [Compound 74] | 13.13 ± 0.02 | – | –
CCc1cc(/C(C)=N/OCc2ccc3ccccc3c2)ccc1CN1CC(C(=O)O)C1 [Compound 15] | 560 ± 185 | – | –
CCc1cc(/C(C)=N/OCc2cc(C)c(-c3cnc(F)cn3)cc2F)ccc1CN1CC[C@H](C(=O)O)C1 [Compound 94, (S, E)-1-(2-ethyl-4-(1-(((2-fluoro-4-(5-fluoropyrazin-2-yl)-5-methylbenzyl)oxy)imino)ethyl)benzyl)pyrrolidine-3-carboxylic acid] | 13.9 ± 1.48 | 614 ± 50.2 | –
CCc1cc(/C(C)=N/OCc2ccc(-c3cnc(F)cn3)c(F)c2)ccc1CN1CC[C@H](C(=O)O)C1 [Compound 88, (S, E)-1-(2-ethyl-4-(1-(((3-fluoro-4-(5-fluoropyrazin-2-yl)benzyl)oxy)imino)ethyl)benzyl)pyrrolidine-3-carboxylic acid] | 27.4 ± 1.12 | 3210 ± 112 | –
C/C(=N\OCc1ccc(C2CCCCC2)c(C(F)(F)F)c1)c1ccc(CN2CC(C(=O)O)C2)c(F)c1 [Compound 11] | 573 ± 106 | 5.63 ± 0.15 | –
CCc1cc(/C(C)=N/OCc2ccc(-c3cnc(F)cn3)c(C)c2F)ccc1CN1CC[C@H](C(=O)O)C1 [Compound 93, (S, E)-1-(2-ethyl-4-(1-(((2-fluoro-4-(5-fluoropyrazin-2-yl)-3-methylbenzyl)oxy)imino)ethyl)benzyl)pyrrolidine-3-carboxylic acid] | 12 ± 1 | 348 ± 40.4 | –
CCc1cc(/C(C)=N/OCc2ccc(-c3cnc(F)cn3)c(C)c2)ccc1CN1CC(C(=O)O)C1 [Compound 91, (E)-1-(2-ethyl-4-(1-(((3-methyl-4-(5-fluoropyrazin-2-yl)-benzyl)oxy)imino)ethyl)benzyl)azetidine-3-carboxylic acid] | – | 54.45 ± 0.2 | –
CCc1cc(/C(C)=N/OCc2ccc(-c3cccs3)cc2)ccc1CN1CC[C@H](C(=O)O)C1 [Compound 73] | 10.7 ± 0.11 | – | –

Continued, in another order:

EC50 (hS1P4) [nM] | EC50 (hS1P1) [nM] | Compound | other results
75.4 ± 5.72 | 125 ± 14.5 | CCc1cc(/C(C)=N/OCc2ccc(-c3cnc(F)cn3)c(C)c2)ccc1CN1CC[C@@H](C(=O)O)C1 [Compound 95, (R, E)-1-(2-ethyl-4-(1-(((4-(5-fluoropyrazin-2-yl)-3-methylbenzyl)oxy)imino)ethyl)benzyl)pyrrolidine-3-carboxylic acid] | –
– | 5950 ± 72.8 | CCc1cc(/C(C)=N/OCc2ccc(-c3cnc(F)cn3)c(C)c2)ccc1CN1CCC(C(=O)O)CC1 [Compound 90, (E)-1-(2-ethyl-4-(1-(((3-methyl-4-(5-fluoropyrazin-2-yl)-benzyl)oxy)imino)ethyl)benzyl)piperidine-4-carboxylic acid] | –
– | 23.2 ± 10.9 | CCc1cc(/C(C)=N/OCc2ccc(OC(C)C)c(C#N)c2)ccc1CN1CC(C(=O)O)C1 [Compound 16, (E)-1-(4-(1-(((3-cyano-4-isopropoxybenzyl)oxy)imino)ethyl)-2-ethylbenzyl)azetidine-3-carboxylic acid] | –
34.17 ± 0.22 | – | CCc1cc(/C(C)=N/OCc2ccc(-c3ccns3)cc2)ccc1CN1CC[C@H](C(=O)O)C1 [Compound 75] | –
10.6 ± 1.19 | – | CCc1cc(/C(C)=N/OCc2ccc(-c3cnc(F)cn3)c(C)c2)ccc1CN1CCC(C(=O)O)C1 (stereo not drawn) [Compound 4, (E)-1-(2-ethyl-4-(1-(((4-(5-fluoropyrazin-2-yl)-3-methylbenzyl)oxy)imino)ethyl)benzyl)pyrrolidine-3-carboxylic acid] | –
135 ± 17.8 | 5250 ± 235 | CCc1cc(/C(C)=N/OCc2ccc(-c3cnc(F)cn3)cc2)ccc1CN1CC[C@H](C(=O)O)C1 [Compound 89] | –
36.2 ± 6.58 | – | CCc1cc(/C(C)=N/OCc2ccc(-c3cncnc3)cc2)ccc1CN1CC[C@H](C(=O)O)C1 [Compound 70, (S, E)-1-(2-ethyl-4-(1-(((4-(pyrimidin-5-yl)benzyl)oxy)imino)ethyl)benzyl)pyrrolidine-3-carboxylic acid] | –
